How the values were obtained:
Format in all cases: biochemical
[1] = target: recombinant JAK1 (amino acids 866-1154) (Homo sapiens (Human), UniProt P23458); assay: Enzyme inhibition studies, JAK1 (peptide phosphorylation, Caliper LC3000); conditions: ATP concentration not given (assayed at ATP Km 55 μM and at 5 mM)
Protocol: (§1) Enzyme inhibition studies were performed using recombinant JAK1 (amino acids 866-1154, Life Technologies, #PV4774, Carlsbad, Calif.), JAK2 (amino acids 831-1132), or JAK3 (amino acids 781-1124) under buffer conditions of 50 mM HEPES pH 7.3, 1 mM DTT, 0.01% Tween® 20, 50 μg/mL BSA, and 10 mM MgCl2. JAK enzyme was expressed as an N-terminal GST fusion in insect cells and purified by glutathione-affinity and size-exclusion chromatographies. […] Phosphorylated and unphosphorylated peptides were separated and quantified by a Caliper LC3000 system (Caliper Life Sciences, MA) for calculating percent inhibition.

[2] = target: recombinant JAK2 (amino acids 831-1132) (Homo sapiens (Human), UniProt O60674); assay: Enzyme inhibition studies, JAK2 (peptide phosphorylation, Caliper LC3000); conditions: ATP concentration of the tabulated values not stated (assayed at ATP Km 15 μM and at 5 mM)
Protocol: as §1

[3] = target: recombinant JAK3 (amino acids 781-1124) (Homo sapiens (Human), UniProt P52333); assay: Enzyme inhibition studies, JAK3 (peptide phosphorylation, Caliper LC3000); conditions: ATP concentration of the tabulated values not stated (assayed at ATP Km 3 μM and at 5 mM)
Protocol: as §1

Sequence of recombinant JAK1 (amino acids 866-1154) (P23458 866-1154): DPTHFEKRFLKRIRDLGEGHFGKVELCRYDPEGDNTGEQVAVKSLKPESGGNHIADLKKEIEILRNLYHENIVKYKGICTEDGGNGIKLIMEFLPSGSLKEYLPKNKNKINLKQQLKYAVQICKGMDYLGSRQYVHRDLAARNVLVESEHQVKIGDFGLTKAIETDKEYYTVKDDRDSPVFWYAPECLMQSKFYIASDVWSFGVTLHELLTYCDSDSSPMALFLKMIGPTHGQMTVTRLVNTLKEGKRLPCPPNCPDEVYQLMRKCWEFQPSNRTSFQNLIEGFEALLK
Sequence of recombinant JAK3 (amino acids 781-1124) (P52333 781-1124): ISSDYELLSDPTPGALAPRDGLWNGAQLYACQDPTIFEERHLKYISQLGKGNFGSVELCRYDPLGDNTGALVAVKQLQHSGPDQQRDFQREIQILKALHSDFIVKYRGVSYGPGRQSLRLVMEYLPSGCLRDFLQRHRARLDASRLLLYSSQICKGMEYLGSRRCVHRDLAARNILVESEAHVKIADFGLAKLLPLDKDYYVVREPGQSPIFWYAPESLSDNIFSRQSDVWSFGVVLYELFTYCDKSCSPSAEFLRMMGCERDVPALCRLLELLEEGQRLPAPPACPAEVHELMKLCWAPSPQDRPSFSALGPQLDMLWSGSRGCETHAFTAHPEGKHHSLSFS
Sequence of recombinant JAK2 (amino acids 831-1132) (O60674 831-1132): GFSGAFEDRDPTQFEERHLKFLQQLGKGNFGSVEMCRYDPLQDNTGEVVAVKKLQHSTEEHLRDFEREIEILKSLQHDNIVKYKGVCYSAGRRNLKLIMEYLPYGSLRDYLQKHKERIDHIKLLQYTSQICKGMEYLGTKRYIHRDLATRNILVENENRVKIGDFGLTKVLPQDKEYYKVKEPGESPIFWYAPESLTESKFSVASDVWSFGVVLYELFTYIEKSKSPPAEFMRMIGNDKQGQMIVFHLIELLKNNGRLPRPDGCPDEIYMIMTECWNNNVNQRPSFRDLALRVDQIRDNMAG

| SMILES | IC50 [1] [nM] | IC50 [2] [nM] | IC50 [3] [nM] |
| --- | --- | --- | --- |
| COCCN1CCN([C@H](C)C(=O)Nc2cccc3c(-c4nc(Nc5cn(C)nc5OC)ncc4C)c[nH]c23)CC1 [Example 17, (2R)-2-[4-(2-methoxyethyl)piperazin-1-yl]-N-(3-{2-[(3-methoxy-1-methyl-1H-pyrazol-4-yl)amino]-5-methylpyrimidin-4-yl}-1H-indol-7-yl)propanamide] | 107 | 18100 | > 30000 |
| CCOc1nn(C)cc1Nc1ncc(C)c(-c2c[nH]c3c(NC(=O)[C@H](CC)N4CCN(C)CC4)cccc23)n1 [Example 63, (2S)-N-(3-{2-[(3-ethoxy-1-methyl-1H-pyrazol-4-yl)amino]-5-methylpyrimidin-4-yl}-1H-indol-7-yl)-2-(4-methylpiperazin-1-yl)butanamide] | 192 | > 30000 | > 30000 |
| CCOc1nn(C)cc1Nc1ncc(C)c(-c2c[nH]c3c(NC(=O)[C@@H](C)N4CCN(CC)CC4)cccc23)n1 [Example 20, (2R)-N-(3-{2-[(3-ethoxy-1-methyl-1H-pyrazol-4-yl)amino]-5-methylpyrimidin-4-yl}-1H-indol-7-yl)-2-(4-ethylpiperazin-1-yl)propanamide] | 51 | 17200 | > 30000 |
| CCOc1nn(C)cc1Nc1ncc(C)c(-c2c[nH]c3c(NC(=O)[C@H](C)N4CCN(C)[C@@H](C)C4)cccc23)n1 [Example 31b, (2S)-2-[(3S)-3,4-dimethylpiperazin-1-yl]-N-(3-{2-[(3-ethoxy-1-methyl-1H-pyrazol-4-yl)amino]-5-methylpyrimidin-4-yl}-1H-indol-7-yl)propanamide] | 454 | > 30000 | > 30000 |
| CCOc1nn(C)cc1Nc1ncc(F)c(-c2c[nH]c3c(NC(=O)[C@H](C)N4CCN(C)[C@@H](C)C4)cccc23)n1 [Example 11b, (2S)-2-[(3S)-3,4-dimethylpiperazin-1-yl]-N-(3-{2-[(3-ethoxy-1-methyl-1H-pyrazol-4-yl)amino]-5-fluoropyrimidin-4-yl}-1H-indol-7-yl)propanamide] | 1850 | > 30000 | > 30000 |
| CCOc1nn(C)cc1Nc1ncc(F)c(-c2c[nH]c3c(NC(=O)[C@@H](C)N4CCN(CC)CC4)cccc23)n1 [Example 8, (2R)-N-(3-{2-[(3-ethoxy-1-methyl-1H-pyrazol-4-yl)amino]-5-fluoropyrimidin-4-yl}-1H-indol-7-yl)-2-(4-ethylpiperazin-1-yl)propanamide] | 110 | 23600 | > 30000 |
| COCCN1CCN([C@H](C)C(=O)Nc2cccc3c(-c4ccnc(Nc5cn(C)nc5OC)n4)c[nH]c23)CC1 [Example 27, (2R)-2-[4-(2-methoxyethyl)piperazin-1-yl]-N-(3-{2-[(3-methoxy-1-methyl-1H-pyrazol-4-yl)amino]pyrimidin-4-yl}-1H-indol-7-yl)propanamide] | 575 | > 30000 | > 30000 |
| CCOc1nn(C)cc1Nc1ncc(C)c(-c2c[nH]c3c(NC(=O)[C@@H](C)N4CCN(CCOC)CC4)cccc23)n1 [Example 21, (2R)-N-(3-{2-[(3-ethoxy-1-methyl-1H-pyrazol-4-yl)amino]-5-methylpyrimidin-4-yl}-1H-indol-7-yl)-2-[4-(2-methoxyethyl)piperazin-1-yl]propanamide] | 184 | > 30000 | > 30000 |
| COc1nn(C)cc1Nc1ncc(F)c(-c2c[nH]c3c(NC(=O)[C@@H](C)N4CCN(C)C[C@@H]4C)cccc23)n1 [Example 7a, (2R)-2-[(2S)-2,4-dimethylpiperazin-1-yl]-N-(3-{5-fluoro-2-[(3-methoxy-1-methyl-1H-pyrazol-4-yl)amino]pyrimidin-4-yl}-1H-indol-7-yl)propanamide] | 359 | > 30000 | > 30000 |
| CCOc1nn(CC)cc1Nc1ncc(C)c(-c2c[nH]c3c(NC(=O)[C@@H](C)N4CCN(C)CC4)cccc23)n1 [Example 59, (2R)-N-(3-{2-[(3-ethoxy-1-ethyl-1H-pyrazol-4-yl)amino]-5-methylpyrimidin-4-yl}-1H-indol-7-yl)-2-(4-methylpiperazin-1-yl)propanamide] | 69 | > 30000 | > 30000 |
| CCOc1nn(C)cc1Nc1ncc(F)c(-c2c[nH]c3c(NC(=O)[C@@H](C)N4CCN(C)[C@H](C)C4)cccc23)n1 [Example 13, (2R)-2-[(3R)-3,4-dimethylpiperazin-1-yl]-N-(3-{2-[(3-ethoxy-1-methyl-1H-pyrazol-4-yl)amino]-5-fluoropyrimidin-4-yl}-1H-indol-7-yl)propanamide] | 166 | > 30000 | > 30000 |
| CC[C@@H](C(=O)Nc1cccc2c(-c3nc(Nc4cn(C)nc4OC)ncc3C)c[nH]c12)N1CCN(C)CC1 [Example 43, (2S)-N-(3-{2-[(3-Methoxy-1-methyl-1H-pyrazol-4-yl)amino]-5-methylpyrimidin-4-yl}-1H-indol-7-yl)-2-(4-methylpiperazin-1-yl)butanamide] | 79 | 21100 | > 30000 |

Stronger by IC50 [1], values ahead:

| IC50 [1] [nM] | IC50 [2] [nM] | IC50 [3] [nM] | SMILES |
| --- | --- | --- | --- |
| 28 | 5150 | > 30000 | Cc1nn(C)cc1Nc1ncc(F)c(-c2c[nH]c3c(NC(=O)[C@@H](C)N4CCN(C)CC4)cccc23)n1 [Example 56, (2R)-N-(3-{2-[(1,3-dimethyl-1H-pyrazol-4-yl)amino]-5-fluoropyrimidin-4-yl}-1H-indol-7-yl)-2-(4-methylpiperazin-1-yl)propanamide] |
| 4 | 1530 | > 30000 | COC[C@H](C(=O)Nc1cccc2c(-c3ccnc(Nc4cn(C)nc4OC)n3)c[nH]c12)N1CCN(C)CC1 [Example 60, (2R)-3-Methoxy-N-(3-{2-[(3-methoxy-1-methyl-1H-pyrazol-4-yl)amino]pyrimidin-4-yl}-1H-indol-7-yl)-2-(4-methylpiperazin-1-yl)propanamide] |
| < 3 | 322 | > 30000 | COC[C@H](C(=O)Nc1cccc2c(-c3nc(Nc4cn(C)nc4C)ncc3F)c[nH]c12)N1CCN(C)CC1 [Example 53, (2R)-N-(3-{2-[(1,3-dimethyl-1H-pyrazol-4-yl)amino]-5-fluoropyimidin-4-yl}-1H-indol-7-yl)-3-methoxy-2-(4-methylpiperazin-1-yl)propanamide] |
| 15 | 19800 | > 30000 | CCOc1nn(C)cc1Nc1ncc(C)c(-c2c[nH]c3c(NC(=O)[C@@H](C)N4CCN(C)[C@@H](C)C4)cccc23)n1 [Example 31a, (2R)-2-[(3S)-3,4-dimethylpiperazin-1-yl]-N-(3-{2-[(3-ethoxy-1-methyl-1H-pyrazol-4-yl)amino]-5-methylpyrimidin-4-yl}-1H-indol-7-yl)propanamide] |
| < 3 | 790 | > 30000 | COC[C@H](C(=O)Nc1cccc2c(-c3nc(Nc4cn(C)nc4OC)ncc3C)c[nH]c12)N1CCN(C)CC1 [Example 45, (2R)-3-methoxy-N-(3-{2-[(3-methoxy-1-methyl-1H-pyrazol-4-yl)amino]-5-methylpyrimidin-4-yl}-1H-indol-7-yl)-2-(4-methylpiperazin-1-yl)propanamide] |
| < 6 | 5010 | > 30000 | CCOc1nn(C)cc1Nc1ncc(C)c(-c2c[nH]c3c(NC(=O)[C@@H](CC)N4CCN(C)CC4)cccc23)n1 [Example 62, (2R)-N-(3-{2-[(3-ethoxy-1-methyl-1H-pyrazol-4-yl)amino]-5-methylpyrimidin-4-yl}-1H-indol-7-yl)-2-(4-methylpiperazin-1-yl)butanamide] |
| 8 | 1580 | 15400 | COc1nn(C)cc1Nc1ncc(Br)c(-c2c[nH]c3c(NC(=O)[C@@H](C)N4CCN(C)CC4)cccc23)n1 [Example 37, (2R)-N-(3-{5-bromo-2-[(3-methoxy-1-methyl-1H-pyrazol-4-yl)amino]pyrimidin-4-yl}-1H-indol-7-yl)-2-(4-methylpiperazin-1-yl)propanamide] |
